From US20250034216A1, “STEREOSELECTIVE COVALENT LIGANDS FOR ONCOGENIC AND IMMUNOLOGICAL PROTEINS” (The Scripps Research Institute, priority 2021, published 2025)

Assays:
Assay in all cases: IA-DTB cysteine engagement
Type in all cases: binding
DDX39B_C87 = target: T1, DDX39B_C87 (Homo sapiens, UniProt Q13838); details: 22Rv1 cells, 20 μM probe, 1 h, relative to DMSO
T1 construct: endogenous in cells; host or cells: 22Rv1
In short: (§1)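 Probe-exposed cells were lysed, IA-DTB-labeled, trypsinized and streptavidin-enriched. Multiplexed TMT quantitation gave engagement ratios versus DMSO, with non-tryptic peptides excluded and intensities normalized to median summed signal.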

NSUN2_C271 = target: T2, NSUN2_C271 (Homo sapiens, UniProt Q08J23); details: 22Rv1 cells, relative to DMSO; for % engagement NSUN2_C271: 20 μM probe, 1 h; for % engagement NSUN2_271: 5 μM probe, 1 h (FIG. 5B)
T2 construct: endogenous in cells; host or cells: 22Rv1
T2 sequence (Q08J23 whole entry): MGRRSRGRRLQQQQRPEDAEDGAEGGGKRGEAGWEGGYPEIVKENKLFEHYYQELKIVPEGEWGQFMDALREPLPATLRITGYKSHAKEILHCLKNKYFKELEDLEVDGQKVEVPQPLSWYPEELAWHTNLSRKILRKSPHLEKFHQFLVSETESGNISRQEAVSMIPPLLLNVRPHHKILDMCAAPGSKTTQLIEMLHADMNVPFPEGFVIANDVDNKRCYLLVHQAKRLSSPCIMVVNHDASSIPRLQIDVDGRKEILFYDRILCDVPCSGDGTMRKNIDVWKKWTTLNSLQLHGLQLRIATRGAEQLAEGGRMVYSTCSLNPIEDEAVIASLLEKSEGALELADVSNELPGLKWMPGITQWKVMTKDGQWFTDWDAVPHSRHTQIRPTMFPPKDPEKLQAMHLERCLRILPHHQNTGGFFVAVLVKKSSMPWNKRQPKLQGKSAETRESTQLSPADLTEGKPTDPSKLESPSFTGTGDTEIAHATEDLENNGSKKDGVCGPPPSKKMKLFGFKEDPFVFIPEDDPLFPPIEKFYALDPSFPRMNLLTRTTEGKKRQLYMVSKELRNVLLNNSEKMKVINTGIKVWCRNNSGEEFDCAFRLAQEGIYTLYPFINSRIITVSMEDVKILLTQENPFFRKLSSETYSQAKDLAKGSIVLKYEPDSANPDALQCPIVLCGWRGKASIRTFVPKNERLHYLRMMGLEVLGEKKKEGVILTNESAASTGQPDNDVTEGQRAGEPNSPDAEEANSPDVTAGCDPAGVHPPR
In short: as §1

PLPPR2_C207 = target: T3, PLPPR2_C207 (Homo sapiens, UniProt Q96GM1); details: 22Rv1 cells, 20 μM probe, 1 h, relative to DMSO
T3 construct: endogenous in cells; host or cells: 22Rv1
T3 sequence (Q96GM1 1-343): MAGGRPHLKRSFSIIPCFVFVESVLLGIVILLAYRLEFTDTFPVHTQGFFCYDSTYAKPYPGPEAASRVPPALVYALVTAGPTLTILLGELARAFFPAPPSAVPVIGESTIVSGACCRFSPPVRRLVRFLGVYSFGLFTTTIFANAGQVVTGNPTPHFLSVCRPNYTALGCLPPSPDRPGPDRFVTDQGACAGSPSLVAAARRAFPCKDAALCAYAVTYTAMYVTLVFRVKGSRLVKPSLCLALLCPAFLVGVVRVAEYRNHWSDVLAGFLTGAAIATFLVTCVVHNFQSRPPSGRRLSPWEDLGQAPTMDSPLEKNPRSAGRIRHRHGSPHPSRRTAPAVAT
In short: as §1

VPS18_C522 = target: T4, VPS18_C522 (Homo sapiens, UniProt Q9P253); details: 22Rv1 cells, 20 μM probe, 1 h, relative to DMSO
T4 construct: endogenous in cells; host or cells: 22Rv1
T4 sequence (Q9P253 1-973): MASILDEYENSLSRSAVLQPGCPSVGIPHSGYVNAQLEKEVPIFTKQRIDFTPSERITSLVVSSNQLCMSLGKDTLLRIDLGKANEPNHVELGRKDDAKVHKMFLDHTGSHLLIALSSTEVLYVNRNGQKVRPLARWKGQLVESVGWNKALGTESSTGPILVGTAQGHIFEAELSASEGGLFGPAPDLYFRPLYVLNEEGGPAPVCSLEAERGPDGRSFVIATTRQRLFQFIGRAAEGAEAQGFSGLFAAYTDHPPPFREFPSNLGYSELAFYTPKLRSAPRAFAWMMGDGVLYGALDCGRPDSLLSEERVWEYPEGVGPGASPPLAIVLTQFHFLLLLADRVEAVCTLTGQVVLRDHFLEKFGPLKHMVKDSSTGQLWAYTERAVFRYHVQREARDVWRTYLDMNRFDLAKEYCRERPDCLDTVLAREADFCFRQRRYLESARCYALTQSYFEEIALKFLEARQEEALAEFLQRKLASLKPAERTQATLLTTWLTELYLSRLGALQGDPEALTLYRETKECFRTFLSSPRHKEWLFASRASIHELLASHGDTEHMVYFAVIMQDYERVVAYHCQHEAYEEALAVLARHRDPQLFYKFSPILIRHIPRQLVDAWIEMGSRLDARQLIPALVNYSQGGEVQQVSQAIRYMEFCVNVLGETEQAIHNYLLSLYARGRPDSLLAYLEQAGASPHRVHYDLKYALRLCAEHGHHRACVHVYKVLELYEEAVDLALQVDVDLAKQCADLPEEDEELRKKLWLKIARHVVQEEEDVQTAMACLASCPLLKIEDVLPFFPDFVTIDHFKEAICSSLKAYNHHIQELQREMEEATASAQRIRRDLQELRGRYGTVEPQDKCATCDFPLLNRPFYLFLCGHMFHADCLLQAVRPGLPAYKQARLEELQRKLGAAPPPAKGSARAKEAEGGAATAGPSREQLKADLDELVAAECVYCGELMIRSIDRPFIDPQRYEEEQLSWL
In short: as §1

T1 sequence (Q13838 whole entry): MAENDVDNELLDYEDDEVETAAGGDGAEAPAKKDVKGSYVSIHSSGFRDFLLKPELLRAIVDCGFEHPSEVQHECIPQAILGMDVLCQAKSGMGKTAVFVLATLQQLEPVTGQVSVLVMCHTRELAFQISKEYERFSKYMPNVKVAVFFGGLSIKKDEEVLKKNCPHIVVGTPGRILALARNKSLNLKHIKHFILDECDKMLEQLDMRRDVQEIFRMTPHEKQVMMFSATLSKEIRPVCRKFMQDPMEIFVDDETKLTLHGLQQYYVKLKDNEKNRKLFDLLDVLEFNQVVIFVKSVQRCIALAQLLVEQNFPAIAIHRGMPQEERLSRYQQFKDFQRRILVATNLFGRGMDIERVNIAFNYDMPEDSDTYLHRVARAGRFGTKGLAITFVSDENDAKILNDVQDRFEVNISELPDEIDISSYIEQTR

| SMILES | % engagement DDX39B_C87 (DDX39B_C87) | % engagement NSUN2_C271 (NSUN2_C271) | % engagement PLPPR2_C207 (PLPPR2_C207) | % engagement VPS18_C522 (VPS18_C522) | % engagement NSUN2_271 (NSUN2_C271) |
| --- | --- | --- | --- | --- | --- |
| C=CC(=O)N1C[C@@H](c2ccc(Br)cc2)[C@H]1C(=O)Nc1cccc2cccnc12 [MY-1A, (2S,3R)-1-acryloyl-3-(4-bromophenyl)-N-(quinolin-8-yl)azetidine-2-carboxamide] | 44.5% | 42.25% | 30.5% | −22% |  |
| C=CC(=O)N1C[C@H](c2ccc(Br)cc2)[C@@H]1C(=O)Nc1cccc2cccnc12 [MY-1B, (2R,3S)-1-acryloyl-3-(4-bromophenyl)-N-(quinolin-8-yl)azetidine-2-carboxamide] | 37% | 88.75% | 31% | 45% | 94.50% |
| CC#CC(=O)N1C[C@H](c2ccc(Br)cc2)[C@@H]1C(=O)Nc1cccc2cccnc12 [MY-45B, (2R,3S)-3-(4-bromophenyl)-1-(but-2-ynoyl)-N-(quinolin-8-yl)azetidine-2-carboxamide] |  |  |  |  | −13.13% |

More lines, now with the values ahead:

| % engagement DDX39B_C87 (DDX39B_C87) | % engagement NSUN2_C271 (NSUN2_C271) | % engagement PLPPR2_C207 (PLPPR2_C207) | % engagement VPS18_C522 (VPS18_C522) | % engagement NSUN2_271 (NSUN2_C271) | SMILES |
| --- | --- | --- | --- | --- | --- |
| 23.5% | −8.25% | 46.5% | 88% |  | C=CC(=O)N1C[C@H](c2ccc(Br)cc2)[C@H]1C(=O)Nc1cccc2cccnc12 [MY-3A, (2S,3S)-1-acryloyl-3-(4-bromophenyl)-N-(quinolin-8-yl)azetidine-2-carboxamide] |
| 67.5% | −11% | 71% | 21% |  | C=CC(=O)N1C[C@H](c2ccc(Br)cc2)[C@H]1C(=O)Nc1cccc2cccnc12 [MY-3B, (2S,3S)-1-acryloyl-3-(4-bromophenyl)-N-(quinolin-8-yl)azetidine-2-carboxamide] |
